Consider 23 molecules from patent publication US12780800B1, “Triazole-pyridinyl substituted azacyclohexyl acetic acid compounds as LPA receptor antagonists” (Viva Star Biosciences Limited, priority 2021, dated 2022).

The target in this test is T1, LPA1 (Homo sapiens, UniProt Q92633).
T1 construct: ProLink (PK) beta-galactosidase enzyme-fragment tag; host or cells: CHO-K1
T1 sequence (Q92633 whole entry, the tested form may be a part): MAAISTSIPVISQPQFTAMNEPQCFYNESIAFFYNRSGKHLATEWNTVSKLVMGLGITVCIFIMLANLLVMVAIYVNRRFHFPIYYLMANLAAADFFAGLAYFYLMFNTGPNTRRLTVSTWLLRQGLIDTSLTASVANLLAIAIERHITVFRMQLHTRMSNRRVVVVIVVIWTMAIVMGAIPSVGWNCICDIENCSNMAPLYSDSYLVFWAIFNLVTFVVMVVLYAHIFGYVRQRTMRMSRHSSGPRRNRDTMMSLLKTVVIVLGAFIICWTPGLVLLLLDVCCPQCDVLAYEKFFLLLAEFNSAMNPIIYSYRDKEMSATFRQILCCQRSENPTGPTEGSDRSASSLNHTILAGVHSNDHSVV
In words: LPA1 calcium flux assay (LPA1 functional antagonist assay). Particulars: PathHunter CHO-K1 EDG2 β-Arrestin cell line; calcium indicator dye; stimulated with EC80 concentration of LPA; FLIPR Tetra. Type of test: cell-based. How it is done:
Following overnight culture, cells were loaded with calcium indicator dye from the HitHunter Calcium No WashPLUS Assay kit (Eurofins DiscoverX Corporation, Cat #93-0091) for 45 minutes at 37° C. […] After compound addition, assay plates were equilibrated to room temperature for 30 minutes. […] IC50 values were determined by Chemical and Biological Information System from ChemInnovation Software, Inc. The compounds of this invention were tested for their activity to inhibit LPA1 as determined in an LPA1 functional antagonist assay as described herein.
On to `CCCc1ccc(=O)n(Cc2c(-c3ncc(CN4CC(C(=O)O)CC(F)(F)C4)c(CC)n3)cnn2C)c1` (single isomer, unassigned) [Example 160, (S) or (R)-1-((4-ethyl-2-(1-methyl-5-((2-oxo-5-propylpyridin-1(2H)-yl)methyl)-1H-pyrazol-4-yl)pyrimidin-5-yl)methyl)-5,5-difluoropiperidine-3-carboxylic acid], for which the IC50 lay in the range of 500 to 5000 nM.
With `CCCc1ccc(=O)n(Cc2c(-c3ncc(CN4CC(C(=O)O)CC(F)(F)C4)c(CC)n3)cnn2C)c1` (single isomer, unassigned) [Example 161, (R) or (S)-1-((4-ethyl-2-(1-methyl-5-((2-oxo-5-propylpyridin-1(2H)-yl)methyl)-1H-pyrazol-4-yl)pyrimidin-5-yl)methyl)-5,5-difluoropiperidine-3-carboxylic acid] the figure was 500 to 5000 nM.
With `CCc1nc(-c2nnn(C)c2CNc2nccc(C3CCC3)n2)ccc1CN1CC(C(=O)O)CC(F)(F)C1` (single isomer, unassigned) [Example 162, (S) or (R)-1-((6-(5-(((4-cyclobutylpyrimidin-2-yl)amino)methyl)-1-methyl-1H-1,2,3-triazol-4-yl)-2-ethylpyridin-3-yl)methyl)-5,5-difluoropiperidine-3-carboxylic acid] the figure was < 100 nM; with `CCc1nc(-c2nnn(C)c2CNc2nccc(C3CCC3)n2)ccc1CN1CC(C(=O)O)CC(F)(F)C1` (single isomer, unassigned) [Example 163, (R) or (S)-1-((6-(5-(((4-cyclobutylpyrimidin-2-yl)amino)methyl)-1-methyl-1H-1,2,3-triazol-4-yl)-2-ethylpyridin-3-yl)methyl)-5,5-difluoropiperidine-3-carboxylic acid], 100 to 500 nM; with `CCCN(C)C(=O)OCc1c(-c2ccc(CN3CC(C(=O)O)CC(F)(F)C3)c(CC)n2)nnn1C` (single isomer, unassigned) [Example 164, 1-((2-ethyl-6-(1-methyl-5-(((methyl(propyl)carbamoyl)oxy)methyl)-1H-1,2,3-triazol-4-yl)pyridin-3-yl)methyl)-5,5-difluoropiperidine-3-carboxylic acid], > 5000 nM.
With `CCCN(C)C(=O)OCc1c(-c2ccc(CN3CC(C(=O)O)CC(F)(F)C3)c(CC)n2)nnn1C` (single isomer, unassigned) [Example 165, 1-((2-ethyl-6-(1-methyl-5-(((methyl(propyl)carbamoyl)oxy)methyl)-1H-1,2,3-triazol-4-yl)pyridin-3-yl)methyl)-5,5-difluoropiperidine-3-carboxylic acid] the figure was 100 to 500 nM.
`Cc1nc(-c2nnn(C)c2Cn2ccc(CC3CC3)c(C)c2=O)ccc1N1CC(CC(=O)O)CC(F)(F)C1` (stereo in doubt) [Example 3, (S)-2-(1-(6-(5-((4-(cyclopropylmethyl)-3-methyl-2-oxopyridin-1(2H)-yl)methyl)-1-methyl-1H-1,2,3-triazol-4-yl)-2-methylpyridin-3-yl)-5,5-difluoropiperidin-3-yl)acetic acid]: the IC50 was in the range of 500 to 5000 nM.
As for `CCCc1cn(Cc2c(-c3ccc(N4C[C@@H](CC(=O)O)CC(F)(F)C4)c(C)n3)nnn2C)ccc1=O` (stereo in doubt) [Example 43, (S)-2-(5,5-difluoro-1-(2-methyl-6-(1-methyl-5-((4-oxo-3-propylpyridin-1(4H)-yl)methyl)-1H-1,2,3-triazol-4-yl)pyridin-3-yl)piperidin-3-yl)acetic acid], the half-maximal inhibitory concentration (IC50) was > 5000 nM.
As for `CCCc1ccc(=O)n(Cc2c(-c3cnc(N4C[C@H](CC(=O)O)CC(F)(F)C4)cn3)nnn2C)c1` (stereo in doubt) [Example 56, (R)-2-(5,5-difluoro-1-(5-(1-methyl-5-((2-oxo-5-propylpyridin-1(2H)-yl)methyl)-1H-1,2,3-triazol-4-yl)pyrazin-2-yl)piperidin-3-yl)acetic acid], the figure is > 5000 nM; as for `CCc1nc(-c2nnn(C)c2Cn2cc(CC(C)C)n(C)c2=O)ccc1N1C[C@H](CC(=O)O)CC(F)(F)C1` (stereo in doubt) [Example 66, 2-[(3R)-1-[2-ethyl-6-(1-methyl-5-{[3-methyl-4-(2-methylpropyl)-2-oxo-2,3-dihydro-1H-imidazol-1-yl]methyl}-1H-1,2,3-triazol-4-yl)pyridin-3-yl]-5,5-difluoropiperidin-3-yl]acetic acid], < 100 nM; as for `CCc1nc(-c2nnn(C)c2CN2C[C@H](CC3CC3)OC2=O)ccc1N1C[C@H](CC(=O)O)CC(F)(F)C1` (stereo in doubt) [Example 69, 2-((R)-1-(6-(5-(((S)-5-(cyclopropylmethyl)-2-oxooxazolidin-3-yl)methyl)-1-methyl-1H-1,2,3-triazol-4-yl)-2-ethylpyridin-3-yl)-5,5-difluoropiperidin-3-yl)acetic acid], 500 to 5000 nM.
On to `Cc1nc(-c2nnn(C)c2CN2CCN(CC3CC3)C2=O)ccc1N1CC(CC(=O)O)CC(F)(F)C1` (stereo in doubt) [Example 70, (R)-2-(1-(6-(5-((3-(cyclopropylmethyl)-2-oxoimidazolidin-1-yl)methyl)-1-methyl-1H-1,2,3-triazol-4-yl)-2-methylpyridin-3-yl)-5,5-difluoropiperidin-3-yl)acetic acid], for which the half-inhibitory concentration (IC50) was > 5000 nM.
As for `CCc1nc(-c2nnn(C)c2CNc2nncc(C3CC3)n2)ccc1N1C[C@H](CC(=O)O)CC(F)(F)C1` (stereo in doubt) [Example 112, (R)-2-(1-(6-(5-(((5-cyclopropyl-1,2,4-triazin-3-yl)amino)methyl)-1-methyl-1H-1,2,3-triazol-4-yl)-2-ethylpyridin-3-yl)-5,5-difluoropiperidin-3-yl)acetic acid], the figure is 500 to 5000 nM; as for `CCc1nc(-c2nnn(C)c2COc2noc(C3CC3)n2)ccc1N1CC(CC(=O)O)CC(F)(F)C1` (stereo in doubt) [Example 114, (R)-2-(1-(6-(5-(((5-cyclopropyl-1,2,4-oxadiazol-3-yl)oxy)methyl)-1-methyl-1H-1,2,3-triazol-4-yl)-2-ethylpyridin-3-yl)-5,5-difluoropiperidin-3-yl)acetic acid], > 5000 nM.
As for `CCc1nc(-c2nnn(C)c2CNc2noc(C3CC3)n2)ccc1N1CC(CC(=O)O)CC(F)(F)C1` (stereo in doubt) [Example 115, (R)-2-(1-(6-(5-(((5-cyclopropyl-1,2,4-oxadiazol-3-yl)amino)methyl)-1-methyl-1H-1,2,3-triazol-4-yl)-2-ethylpyridin-3-yl)-5,5-difluoropiperidin-3-yl)acetic acid], the figure is > 5000 nM.
Turning to `CCCc1cc(C)c(=O)n(Cc2c(-c3ccc(N4C[C@@H](CC(=O)O)CC(F)(F)C4)c(C)n3)nnn2C)c1` [Example 1, (S)-2-(5,5-difluoro-1-(2-methyl-6-(1-methyl-5-((3-methyl-2-oxo-5-propylpyridin-1(2H)-yl)methyl)-1H-1,2,3-triazol-4-yl)pyridin-3-yl)piperidin-3-yl)acetic acid], the IC50 is 500 to 5000 nM.
Consider `Cc1nc(-c2nnn(C)c2Cn2ccc(CC3CC3)c(C)c2=O)ccc1N1C[C@@H](CC(=O)O)CC(F)(F)C1` [Example 2, (S)-2-(1-(6-(5-((4-(cyclopropylmethyl)-3-methyl-2-oxopyridin-1(2H)-yl)methyl)-1-methyl-1H-1,2,3-triazol-4-yl)-2-methylpyridin-3-yl)-5,5-difluoropiperidin-3-yl)acetic acid], for which the IC50 was in the range of 500 to 5000 nM.
With `CCCc1ccc(=O)n(Cc2c(-c3ccc(N4C[C@@H](CC(=O)O)CC(F)(F)C4)c(C)n3)nnn2C)c1` [Example 4, (S)-2-(5,5-difluoro-1-(2-methyl-6-(1-methyl-5-((2-oxo-5-propylpyridin-1(2H)-yl)methyl)-1H-1,2,3-triazol-4-yl)pyridin-3-yl)piperidin-3-yl)acetic acid] the figure was 100 to 500 nM.
As for `CCCc1cccn(Cc2c(-c3ccc(N4C[C@@H](CC(=O)O)CC(F)(F)C4)c(C)n3)nnn2C)c1=O` [Example 5, (S)-2-(5,5-difluoro-1-(2-methyl-6-(1-methyl-5-((2-oxo-3-propylpyridin-1(2H)-yl)methyl)-1H-1,2,3-triazol-4-yl)pyridin-3-yl)piperidin-3-yl)acetic acid], the figure is > 5000 nM; as for `CCCc1ccc(=O)n(Cc2c(-c3ccc(N4C[C@@H](CC(=O)O)CC(F)(F)C4)c(CC)n3)nnn2C)c1` [Example 6, (S)-2-(1-(2-ethyl-6-(1-methyl-5-((2-oxo-5-propylpyridin-1(2H)-yl)methyl)-1 H-1,2,3-triazol-4-yl)pyridin-3-yl)-5,5-difluoropiperidin-3-yl)acetic acid], < 100 nM; as for `CCCc1ccc(=O)n(Cc2c(-c3ccc(N4C[C@H](CC(=O)O)CC(F)(F)C4)c(CC)n3)nnn2C)c1` [Example 7, (R)-2-(1-(2-ethyl-6-(1-methyl-5-((2-oxo-5-propylpyridin-1(2H)-yl)methyl)-1H-1,2,3-triazol-4-yl)pyridin-3-yl)-5,5-difluoropiperidin-3-yl)acetic acid], 500 to 5000 nM.
Take `CCCc1ccn(Cc2c(-c3ccc(N4C[C@@H](CC(=O)O)CC(F)(F)C4)c(CC)n3)nnn2C)c(=O)c1` [Example 8, (S)-2-(1-(2-ethyl-6-(1-methyl-5-((2-oxo-4-propylpyridin-1(2H)-yl)methyl)-1 H-1,2,3-triazol-4-yl)pyridin-3-yl)-5,5-difluoropiperidin-3-yl)acetic acid]: the IC50 was > 5000 nM.
As for `CCc1nc(-c2nnn(C)c2Cn2ccc(CC3CC3)cc2=O)ccc1N1C[C@@H](CC(=O)O)CC(F)(F)C1` [Example 9, (S)-2-(1-(6-(5-((4-(cyclopropyImethyl)-2-oxopyridin-1(2H)-yl)methyl)-1-methyl-1H-1,2,3-triazol-4-yl)-2-ethylpyridin-3-yl)-5,5-difluoropiperidin-3-yl)acetic acid], the figure is > 5000 nM.
